The values below come from US20150272881A1, “REDUCED PYRROLOQUINOLINE QUINONE GEL” (MITSUBISHI GAS CHEMICAL COMPANY, INC., priority 2011, published 2015).

The series is classed as physicochemical. The source says:
The “solubility” in this description means the limit of dissolving of a solute in a solvent; it can be expressed as the concentration of a solute in a saturated solution. The solubility of the oxidized pyrroloquinoline quinone derivative or a salt thereof can be appropriately decided depending on the temperature of the mixture.

As for `O=C([O-])c1cc(C(=O)[O-])c2c(n1)C(=O)C(=O)c1cc(C(=O)O)[nH]c1-2.[Na+].[Na+]` [oxidized pyrroloquinoline quinone disodium], the solubility was 0.299 g with respect to 100 g of water.
